Results from patent publication US11357779B2 (G1 Therapeutics, Inc., priority 2018, dated 2022).
“Also recorded” adds a separate entry of the source. Like-named read-outs stand apart in the source and are kept apart here.

Tests used:
ME-016 tumor = assay: Murine BRAFmut melanoma PDX model, tumor growth and survival; assay type: in vivo; conditions: ME-016 tumor-containing mice; Compound I 100 mg/kg, dabrafenib 25 mg/kg, trametinib 1 mg/kg
Procedure: Mice containing a ME-016 tumor were treated with vehicle, Compound I (100 mg/kg), dabrafenib (25 mg/kg), trametinib (1 mg/kg), Compound I+dabrafenib, Compound I+trametinib, dabrafenib+trametinib, and Compound I+dabrafenib+trametinib.

[1] = Stability study under thermal stress, 60° C. for 7 days; assay type: physicochemical
Procedure: Forms A, B, and D were stored in an oven maintained at 60° C. for 7 days.

[2] = Dynamic vapor sorption (moisture sorption) experiment
Procedure: Dynamic vapor sorption experiments were performed on Form A, Form B, and Form D. Table 103 provides the results of the DVS experiment.

[3] = Vacuum drying experiments of Form B; assay type: physicochemical; conditions: for Weight Loss (calculated by weight before and after drying): Vacuum oven
[4] = cited from earlier work
[5] = Steady-state AUC0-24,ss, (AUC0-24,ss)/dose, half-life and time to steady state: Compound I versus palbociclib, ribociclib, abemaciclib; assay type: in vivo, human; conditions: for (AUC0-24,ss)/Dose (mg): in h·ng/mL/mg; for Time to Steady State / Time to Steady-State: FDA labeled dose, five half-lives; for AUC(0-t): human, in vivo, read-out: Extrapolated AUC0-24,ss
Excerpt: The time to reach steady state was defined as five half-lives (97% steady state achieved). […] The AUC data are presented as the arithmetic mean. […] The AUC data are presented as the geometric mean. The steady-state AUC0-24 for various BID doses of abemaciclib provided in Table 89 was obtained from the above cited prior published studies. The AUC data are presented as the geometric mean.

[6] = cited from earlier work; for AUC0-24,ss: geometric mean; for AUC0-10,ss: arithmetic mean
[7] = trial not given; cited from earlier work
[8] = abemaciclib, cited from earlier work
[9] = Grade 3/4 neutropenia and leukopenia; cited from earlier work
[10] = MONALEESA-2; cited from earlier work

CC(C)(C)c1nc(-c2cccc(NS(=O)(=O)c3c(F)cccc3F)c2F)c(-c2ccnc(N)n2)s1 [Dabrefinib]
Median OS (ME-016 tumor): 32 days

CC(C)N1CCN(c2ccc(Nc3ncc4cc5n(c4n3)C3(CCCCC3)CNC5=O)nc2)CC1.Cl.Cl [Form D]
XRPD pattern after thermal stress [1]: No change in the XRPD pattern
moisture adsorbed ([2]; 60% RH): 4.4 wt %
% wt change at 60% RH ([2]; DVS, 60% RH): 4.4 % wt
% wt change at 90% RH ([2]; DVS, 90% RH): 17.0 % wt
stability in the moisture sorption experiment (XRPD of dried sample) ([2]; after DVS, dried at 60° C. and 0% RH): unstable; also recorded: not stable
XRPD (post DVS) ([2]; after moisture sorption experiment, dried at 60° C. and 0% RH): Form K

CC(C)N1CCN(c2ccc(Nc3ncc4cc5n(c4n3)C3(CCCCC3)CNC5=O)nc2)CC1.Cl.Cl [Sample 8]
Weight Loss (calculated by weight before and after drying) ([3]; ~40° C., 15 h (~29.5 in Hg)): Weight loss: 7.4%
XRPD Result ([3]; after Vacuum oven, ~40° C., 15 h (~29.5 in Hg)): New crystalline

CC(C)N1CCN(c2ccc(Nc3ncc4cc5n(c4n3)C3(CCCCC3)CNC5=O)nc2)CC1.Cl.Cl [Sample 14]
Weight Loss (calculated by weight before and after drying) ([3]; 23° C., 2 h (~29.5 in Hg)): Weight loss: 6.8%
Weight Loss (calculated by weight before and after drying) ([3]; ~40° C., 15 h (~29.5 in Hg)): Weight loss: 7.5%

CC(=O)Nc1cccc(-n2c(=O)n(C3CC3)c(=O)c3c(Nc4ccc(I)cc4F)n(C)c(=O)c(C)c32)c1 [Trametinib]
Median OS (ME-016 tumor): 42.5 days

CCN1CCN(Cc2ccc(Nc3ncc(F)c(-c4cc(F)c5nc(C)n(C(C)C)c5c4)n3)nc2)CC1 [abemaciclib, 2-pyrimidinamine, N-[5-[(4-ethyl-1-piperazinyl)methyl]-2-pyridinyl]-5-fluoro-4-[4-fluoro-2-methyl-1-(1-methylethyl)-1H-benzimidazol-6-yl]-]
Diarrhea, patients ([4]; MONARCH 1, abemaciclib alone): 90%
Grade 3 diarrhea, patients ([4]; MONARCH 1, abemaciclib alone): 20%
Neutropenia, patients ([4]; MONARCH 1, abemaciclib alone): 37%
Grade >3 decrease in neutrophil count (based on laboratory findings), patients ([4]; MONARCH 1): 27%
(AUC0-24,ss)/Dose (mg) ([5]; 75 mg BID): 17.33
(AUC0-24,ss)/Dose (mg) ([5]; 100 mg BID): 39.10
(AUC0-24,ss)/Dose (mg) ([5]; 150 mg BID): 28.53
(AUC0-24,ss)/Dose (mg) ([5]; 200 mg BID): 27.60
AUC0-24,ss ([6]; 75 mg BID): 1300 ng·h/mL
AUC0-24,ss ([6]; 100 mg BID): 3910 ng·h/mL
AUC0-24,ss ([6]; 150 mg BID): 4280 ng·h/mL
AUC0-24,ss ([6]; 200 mg BID): 5520 ng·h/mL
patients with diarrhea required a dose reduction [7]: 22%
patients with diarrhea required dose omission [7]: 22%
estimated geometric mean accumulation ratio ([8]; based on AUC): 3.2 (59% CV)
estimated geometric mean accumulation ratio ([8]; based on Cmax): 2.3 (50% CV)
T1/2 ([8]; human): roughly 18.3 hours

CC(=O)c1c(C)c2cnc(Nc3ccc(N4CCNCC4)cn3)nc2n(C2CCCC2)c1=O [palbociclib, 6-acetyl-8-cyclopentyl-5-methyl-2-(5-piperazin-1-yl-pyridin-2-ylammino)-8H-pyrido-[2,3-d]-pyrimidin-7-one]
Extrapolated AUC0-24,ss ([5]; 100 mg QD, AUC0-24=(AUC0-10)*2.49655): 1478 ng·h/mL
Time to Steady State ([5]; 125 mg QD): 5.5 days
Time to Steady-State ([5]; 125 mg QD): 132.5 h
AUC(0-t) ([5]; 25 mg QD, AUC0-24=(AUC0-10)*2.49655): 297 ng·h/mL
AUC(0-t) ([5]; 50 mg QD, AUC0-24=(AUC0-10)*2.49655): 684 ng·h/mL
AUC(0-t) ([5]; 75 mg QD, AUC0-24=(AUC0-10)*2.49655): 1230 ng·h/mL
AUC(0-t) ([5]; 125 mg QD, AUC0-24=(AUC0-10)*2.49655): 1810 ng·h/mL
AUC(0-t) ([5]; 150 mg QD, AUC0-24=(AUC0-10)*2.49655): 2710 ng·h/mL
AUC0-10,ss ([6]; 25 mg QD): 119 ng·h/mL
AUC0-10,ss ([6]; 50 mg QD): 274 ng·h/mL
AUC0-10,ss ([6]; 75 mg QD): 492 ng·h/mL
AUC0-10,ss ([6]; 100 mg QD): 592 ng·h/mL
Mean Half-Life ([6]; 125 mg QD, FDA labeled dose): 26.5 h
AUC0-10,ss ([6]; 125 mg QD): 724 ng·h/mL
AUC0-10,ss ([6]; 150 mg QD): 1084 ng·h/mL
patients requiring a dose interruption [9]: 71%
patients requiring a dose reduction [9]: 35%

CN(C)C(=O)c1cc2cnc(Nc3ccc(N4CCNCC4)cn3)nc2n1C1CCCC1 [ribociclib, 7-cyclopentyl-N,N-dimethyl-2-((5-(piperazin-1-yl)pyridin-2-yl)amino)-7H-pyrrolo[2,3-d]pyrimidine-6-carboxamide]
neutropenia, most frequently reported adverse reaction [10]: 75%
Time to Steady State ([5]; 600 mg QD): 6.8 days
Time to Steady-State ([5]; 600 mg QD): 162.5 h
